{"source": "patent US9585957B2", "about": "“Adenosine receptor agonists and antagonists to modulate T cell responses” (THE JOHNS HOPKINS UNIVERSITY, priority 2007, dated 2017)", "key": {"[1]": {"test_system": "ERK phosphorylation, jun B, AP-1", "assay": "Western blot for phospho-ERK and jun B, and EMSA for AP-1, after T cell stimulation with or without CGS", "format": "cell-based, mice", "method": "For phospho-ERK and total ERK Western blots, splenocytes from 6.5^+ mice were stimulated overnight with 10 ug/mL HA class II peptide then harvested and enriched for CD4^+ T cells. CD4^+ purified T cells were then stimulated in 500 uL with soluble anti-CD3 (10 ug/mL) and soluble anti-CD28 (1:20 dilution).\nNuclear extracts from CD4^+ purified 6.5^+ T cells that were prepared. The AP-1 probe was: 5′-CGCTTGATGACTCAGCCGGAA-3′. The NFkB probe was: 5′-AGTTGAGGGGACTTTCCCAGGC-3′."}, "[2]": {"test_system": "6.5 TCR transgenic T cells", "assay": "Anergy and LAG-3 induction in primary 6.5 TCR transgenic CD4+ T cells incubated with HA and CGS, then rechallenged", "format": "cell-based, mice", "method": "Splenocytes and lymphocytes from A2a receptor wt or null 6.5^+ mice (see below) were harvested and enriched for CD4^+ T cells via negative selection with the CD4^+ T cell isolation kit and LS MACs column (all from Miltenyi Biotech, Auburn, Calif.). […] The T cells were rechallenged for 3-4 hours with 100 ug/mL HA class II peptide, GolgiStop (BD PharMingen) and irradiated APCs.\nThe cells were harvested, mRNA isolated with Trizol and cDNA was generated. RT-PCR was performed as previously described (Safford et al. Nat Immunol. 2005; 6:472-480).\nSplenocytes and lymphocytes from A2a receptor wt or null, 6.5^+ mice were harvested and enriched for CD4′ T cells via negative selection with the CD4^+ T cell isolation kit and LS MACs column (all from Miltenyi Biotech, Auburn, Calif.). […] Irradiated splenocytes from mice of the same A2a receptor genotype were used as APCs, at a 10:1 ratio with T cells. After 3 days, the T cells were harvested and isolated via a ficoll gradient, washed extensively and immediately rechallenged for intracellular staining Briefly, the 1×10^5 T cells were stimulated for 3-4 hours with 5×10^5 irradiated A2a receptor wt APCs, […] HA class II peptide and a 1:1000 dilution of GolgiStop (BD PharMingen), in a total volume of […]. After the stimulation, the cells were washed, stained with anti-6.5 and anti-CD4 antibodies, permeablized and fixed, then stained with anti-IFN-y antibody. Finally, the cells were washed and IFN-y production of […], 6.5^+ T cells was analyzed by flow cytometry."}, "[3]": {"test_system": "6.5+ T cells in C3HA mice", "assay": "Ex vivo tolerance studies: in vitro rechallenge of T cells harvested from vehicle- or CGS-treated C3HA mice", "method": "1.2×10^6 clonotypic 6.5^+ T cells were adoptive transferred into C3HA recipient mice as described above. On the second or third day (as noted) after transfer the splenocytes and lymphocytes were harvested and pooled. 2×10^5 of the pooled cells were incubated in 96-well round bottom plates with varying concentrations of HA class II peptide for 24 hours. A portion of the supernatant were withdrawn and later assayed for IL-2 and IFN-γ productions by ELISA. The wells were then pulsed with [^3H]thymidine for 16 hours and proliferation determined by tritium incorporation, as described above. All samples were performed in triplicate."}, "LAG-3": {"test_system": "LAG-3", "assay": "LAG-3 expression by RT-PCR in 6.5+ T cells sorted from CGS-treated C3HA mice", "format": "in vivo", "details": "T cells from CGS-treated versus vehicle-treated C3HA mice (FIG. 5a)", "method": "For in vivo studies, recipient C3HA mice were given 1.2×10^6 6.5^+ donor T cells as described above. On Day 3, donor T cells were sorted and cDNA generated as above. RT-PCR was performed as previously described (Safford et al. Nat Immunol. 2005; 6:472-480).\nRecipient mice are given 1.2×10^6 donor T cells as described above. On Day 4, cells from spleens and lymph nodes are harvested and pooled. They are enriched for CD4^+ T cells via negative selection using biotinylated anti-CD8 (Ly-2, 53-6.7), anti-B220 (RA3-6B2) and anti-Thy 1.2(30-H12) antibodies (all from BD Biosciences PharMingen), and MACS streptavidin microbeads and AutoMACS column (Miltenyi Biotech) to deplete CD8^+ T cells, B cells and recipient cells (Thy 1.2′). The remaining cells are then sorted on Thy 1. I and CD4 using FACSAria cell sorter to yield a CD4′, 6.5′ T cell population of greater than 95% purity. RT-PCR was performed as previously described’."}, "[4]": {"test_system": "6.5+ T cells in C3HA mice", "assay": "In vivo suppression: second transfer of lethal numbers of clonotypic 6.5+ T cells into surviving C3HA mice", "details": "mice that survived as a result of CGS treatment; no drug at second transfer (FIG. 5d)", "method": "It has been shown that mice that survive the initial transfer of donor T cells can survive subsequent transfer of higher numbers of clonotypic T cells. To determine if adenosine mediates the formation of T regulatory cells, in vivo, we gave the surviving mice from FIG. 4a a transfer of […] clonotypic T cells 4-6 weeks after the first transfer. No CGS is administered upon the second transfer.\nTests were conducted to determine if the CGS-induced clonotypic regulatory cells could protect the mice upon subsequent rechallenge with a second injection of clonotypic cells. An in vivo suppression assay was performed by adoptively transferring uniformly lethal numbers of clonotypic 6.5^+ T cells (2.5×10^6) into mice that had survived the initial adoptive transfer (and developed regulatory T cells) (FIG. 5d)."}}}
{"molecule": "CCNC(=O)[C@H]1O[C@@H](n2cnc3c(N)nc(NCCc4ccc(CCC(=O)O)cc4)nc32)[C@H](O)[C@@H]1O", "note": "[CGS, 2-p-(2-carboxyethyl)phenethyl-amino-5-N-ethyl-carboxamidoadenosine]", "values": [{"measurement": "ERK phosphorylation", "setting": "[1]; Signal 1+2, 1 μM CGS (FIG. 3d)", "value": "inhibited ERK phosphorylation"}, {"measurement": "jun B expression in the nucleus", "setting": "[1]; T cell stimulation, 1 μM CGS (FIG. 3e)", "value": "reduced jun B expression"}, {"measurement": "AP-1 binding (EMSA)", "setting": "[1]; T cell stimulation, 1 μM CGS (FIG. 3f)", "value": "lowered AP-1 binding"}, {"measurement": "IFN-γ production upon rechallenge by intracellular staining", "setting": "[2]; A2a receptor Wt 6.5 T cells, HA with 1 μM CGS during primary stimulation (FIG. 3a)", "value": "hyporesponsive upon subsequent stimulation"}, {"measurement": "CGS-induced anergy in A2a receptor null T cells", "setting": "[2]; A2a receptor null 6.5 T cells, HA with 1 μM CGS (FIG. 3a)", "value": "resistant to CGS-induced anergy"}, {"measurement": "LAG-3 expression", "setting": "[2]; CD4+ 6.5+ primary T cells, irradiated APCs and HA, 1 μM CGS, 3 days, mRNA (FIG. 3b)", "value": "increase in LAG-3 expression"}, {"measurement": "induction of LAG-3 with exogenous IL-2 added", "setting": "[2]; CGS plus exogenous IL-2", "value": "abrogated"}, {"measurement": "proliferation and cytokine production of harvested cells, two days after adoptive transfer", "setting": "[3]; CGS-treated versus vehicle-treated mice, no CGS during rechallenge", "value": "equal proliferation and cytokine production"}, {"measurement": "proliferation following in vitro stimulation, Day 3", "setting": "[3]; T cells from CGS-treated versus vehicle-treated mice, no CGS during rechallenge (FIG. 4b)", "value": "significant reduction in proliferation"}, {"measurement": "IFN-γ production following in vitro stimulation, Day 3", "setting": "[3]; T cells from CGS-treated versus vehicle-treated mice, no CGS during rechallenge (FIG. 4c)", "value": "significant reduction"}, {"measurement": "kinetics of LAG-3 expression in T cells", "setting": "LAG-3", "value": "quicker and more robust"}, {"measurement": "survival of the second adoptive transfer", "setting": "[4]", "value": 100, "unit": "%"}]}
